Converted amounts (≈) assume the structure as drawn. Like-named read-outs stand apart in the source and are kept apart here.
Tests used:
[1] = Solubility of compound 125 salts and free base (96-well plate, shaken at RT 30 minutes, filtered, HPLC); format: physicochemical; settings: thermodynamic from solid
[2] = Solubility (no method given); format: physicochemical

## CNC(=O)c1nn(C)c2c1C(C)(C)Cc1cnc(Nc3ccc(N4CCN(C)CC4)cc3)nc1-2 [compound 125, 8-[4-(4-methyl-piperazin-1-yl)-phenylamino]-1,4,4-trimethyl-4,5-dihydro-1H-pyrazolo[4,3-h]quinazoline-3-carboxylic acid methylamide]
[1]; 10% polysorbate 80 in 5% glucose solution, aqueous with cosolvent or surfactant or cyclodextrin
  solubility at 30 min: 800 µg/mL
[1]; 50% polyethylene glycol 400 in 5% glucose solution, aqueous with cosolvent or surfactant or cyclodextrin, read-out: solubility in 50% polyethylene glycol 400 in 5% glucose solution
  solubility at 30 min: 7200 µg/mL
[1]; saline or isotonic, 5% glucose solution, RT, 30 minutes, read-out: solubility in 5% glucose solution
  solubility at 30 min: < 100 µg/mL
[1]; formulated as hydrochloride in situ salt, read-out: solubility when formulated as hydrochloride in situ salt
  solubility at 30 min: 10000 µg/mL
[2]; 5% dextrose solution, saline or isotonic, read-out: solubility in 5% dextrose solution
  solubility: < 100 µg/mL
[2]; HCl in situ salt formulation, formulated as HCl in situ salt, read-out: solubility when formulated as HCl in situ salt
  solubility: ≥ 10000 µg/mL
[2]; aqueous 10% Polysorbate 80, aqueous with cosolvent or surfactant or cyclodextrin
  solubility: ~800 µg/mL (≈ 1740 µM)
[2]; aqueous 50% Polyethylene Glycol 400, aqueous with cosolvent or surfactant or cyclodextrin, read-out: solubility in aqueous 50% Polyethylene Glycol 400
  solubility: ~8000 µg/mL (≈ 17400 µM)
[2]; water, read-out: aqueous solubility
  solubility: < 100 µg/mL

From patent US8586598B2, “CDK inhibitor salts” (Nerviano Medical Sciences S.R.L., priority 2009, dated 2013)
